# Assay results as given in US12274703B2, “Compositions and methods of treatment for neurological disorders comprising a dementia” (Gliapharm SA, priority 2017, dated 2025).
# Read-outs that look alike come from different tables or passages of the source.
# System: primary astrocytes
# Test: High throughput screening for lactate secretion: acidification of extracellular medium (SNARF5)
# Format: cell-based, mouse
# Settings: Mus musculus, Astrocyte, 1.5 h, 10 uM, 90 min
# Procedure: Primary cultures of cerebrocortical astrocytes were obtained from 1-2-day-old OF1 mouse pups (Charles River Laboratories). Briefly, cortices were isolated and minced in small pieces under a dissecting microscope. The cells were incubated for 30 min at 37° C. in a solution containing 20 U/ml of papain enzyme (Worthington Biochemical), L-cysteine 1 mM (Sigma), and 10 kU/ml DNase I (Worthington Biochemical) for an enzymatic dissociation. Papain activity was stopped by the addition of fetal calf serum (FCS) to the solution, and a single-cell suspension was then obtained by mechanical dissociation, which consisted in cells trituration in a DMEM (D7777, Sigma-Aldrich) medium (supplemented with 44 mm NaHCO3, and 10 ml/L antibiotic/antimycotic solution) containing 10% FCS. The cells were seeded at an average density of 6×10^4 cells/cm^2 in poly-D-lysine-coated 96, 12 or 6-well culture plates, depending on their use, and incubated at 37° C. in a humidified atmosphere containing 5% CO2/95% air. Culture medium was renewed twice per week. Cells were stimulated and harvested between DIV14 and DIV17, when confluence and cell growth were optimal.
# Secretion of lactate in a high-throughput screening (HTS) fashion was measured indirectly through the acidification of extracellular medium. To this end, primary astrocytes grown in 96-well plates for 17 days were stimulated with the compounds as listed herein.
# After washing the cells twice with stimulation medium (DMEM (D5030, Sigma), 3 mM NaHCO3 and 5 mM Glucose) at 37° C., cells were stimulated with the compounds at a final concentration of 10 uM (1% DMSO final) in 50 ul per well of stimulation medium supplemented with 10 uM of the extracellular pH sensor SNARF-5F %-(AND-6)-CAR (Life Technologies Corporation). Each compound was tested in two different plates for duplicates.
# After 90 min stimulation, fluorescence was read at exc. (excitation) 480 nm/emm. (emission) 580 nm and at exc 480 nm/emm. 630 nm. The ratio of fluorescence between 630 nm and 580 emission values, which represents extracellular pH, was calculated.
# In each plate, 8 wells were used for negative controls (DMSO) and 8 wells were used for positive controls (CCCP 2 uM in DMSO). Z prime values were calculated for each of the plates tested and values <0 were discarded.
# The average and SD of compounds' values tested in duplicates were calculated, and compound was noted as HIT when the difference between compound's average and negative control's average was greater than three times the sum of compound's SD and negative controls' SD. Only scores greater than 40% were considered as lead hits for the CDC54K library; for the remaining libraries, all hits were considered. Scores are calculated as the % of activity compared to the positive control in each plate (which is 100%).
# Primary screening hits were cherry picked on new plates and confirmed for SNARF5 effect, after having discarded those compounds that are fluorescent (exc. 480 nm/emm. 580 nm or 630 nm) before stimulation. Extracellular medium was next analyzed for extracellular lactate quantification for secondary screening.
# Identification of lactate-enhancing drugs with high throughput screening (HTS) experiments on astrocytes primary cultures using extracellular pH dye (SNARF5F 5-(and 6)-carboxylic acid) for 90 min. The procedure is described in Material and Methods (2. Cell culture, 2.1. HTS for lactate secretion and 2.2. Extracellular lactate quantification).
# The procedure was performed as follows: • Primary screening: acidification of the extracellular medium • Primary screening confirmation: acidification of the extracellular medium, removal of compounds with fluorescent activity at exc. 480 nm/emm. 580 nm or 630 nm. • Secondary screening: dosage of extracellular lactate
# [1] = Appendix I, primary screening, relative to positive control, read-out: Score
Structure (SMILES),Emax at 10 µM [1],also measured
Cc1ccc(C)c([N+]2=C3CCCCN3C(O)(c3ccc(F)cc3)C2)c1 (stereo not drawn) [K404-0697],59.6%,
COc1ccc(C2(O)C[N+](c3cccc(C)c3)=C3CCCCN32)cc1 (stereo not drawn) [K404-0796],86.1%,
Cc1cccc([N+]2=C3CCCCN3C(O)(c3ccc(Cl)cc3)C2)c1 (stereo not drawn) [K404-0800],97.3%,
Cc1ccc([N+]2=C3CCCCCN3C(O)(c3ccc([N+](=O)[O-])cc3)C2)cc1 (stereo not drawn) [K404-0828],0%,
COc1ccccc1[N+]1=C2CCCCCN2C(O)(c2ccccc2)C1 (stereo not drawn) [K404-0838],103%,
COc1ccccc1[N+]1=C2CCCCCN2C(O)(c2cccc([N+](=O)O)c2)C1 (stereo not drawn) [K404-0842],16.9%,
COc1ccc(C2(O)C[N+](c3cc(C)ccc3C)=C3CCCCCN32)cc1OC (stereo not drawn) [K404-0852],0%,
COc1ccc(OC)c([N+]2=C3CCCCCN3C(O)(c3ccc(C)cc3)C2)c1 (stereo not drawn) [K404-0855],58.5%,
CCOc1ccc(C2(O)C[N+](c3cc(OC)ccc3OC)=C3CCCCCN32)cc1 (stereo not drawn) [K404-0860],57.9%,
COc1ccc(OC)c([N+]2=C3CCCCCN3C(O)(c3ccc([N+](=O)[O-])cc3)C2)c1 (stereo not drawn) [K404-0863],0%,
COc1ccc(C2(O)C[N+](c3ccccc3C)=C3CCCCCN32)cc1OC (stereo not drawn) [K404-0906],19.1%,
Cc1cccc([N+]2=C3CCCCCN3C(O)(c3ccc(F)cc3)C2)c1 (stereo not drawn) [K404-0910],72.6%,
Cc1cccc([N+]2=C3CCCCCN3C(O)(c3ccc([N+](=O)[O-])cc3)C2)c1 (stereo not drawn) [K404-0914],0%,
Cc1cccc([N+]2=C3CCCCCN3C(O)(c3cccc([N+](=O)O)c3)C2)c1 (stereo not drawn) [K404-0915],0%,
Cc1cccc(NS(=O)(=O)c2cc(-c3noc(C)n3)cs2)c1 [L287-0220],35.2%,
O=S(=O)(NC1CCCC1)c1cc(-c2noc(C3CCC3)n2)cs1 [L287-1221],51.6%,

Structure (SMILES),Emax at 10 µM [1],also measured
CC(=O)c1ccc(NS(=O)(=O)c2cc(-c3noc(C4CCCC4)n3)cs2)cc1 [L287-1577],119%,
Cc1ccc(CNS(=O)(=O)c2cc(-c3noc(C4CCCC4)n3)cs2)cc1 [L287-1641],77.2%,
CCN(Cc1ccccc1)S(=O)(=O)c1cc(-c2noc(C3CCCC3)n2)cs1 [L287-1758],0%,
Cn1nccc1-c1csc(S(=O)(=O)Nc2ccc(F)cc2)c1 [L924-0760],69.1%,
COc1ccc(C)cc1NS(=O)(=O)c1cc(-c2ccnn2C)cs1 [L924-0830],78.2%,
Cc1cccc(NS(=O)(=O)c2cc(-c3ccnn3C)cs2)c1 [L924-0884],65.6%,
CCn1nccc1-c1csc(S(=O)(=O)Nc2cc(C)ccc2C)c1 [L924-0988],52.7%,
CCn1nccc1-c1csc(S(=O)(=O)Nc2ccccc2OC)c1 [L924-1088],78.5%,
O=C(c1noc2ccc(S(=O)(=O)Nc3cccc(F)c3)cc12)N1CCCC1 [L995-0058],42.3%,
Cc1ccc(CNS(=O)(=O)c2ccc3onc(C(=O)N4CCCCC4)c3c2)cc1 [L995-0386],18.8%,
Cc1ccccc1NS(=O)(=O)c1ccc2onc(C(=O)N3CCCCC3)c2c1 [L995-0405],21.3%,
Clc1ccc(COC(Cn2ccnc2)c2ccc(Cl)cc2Cl)c(Cl)c1 (stereo not drawn) [Miconazole],,"Emax at 10 µM (Prestwick hits, activity relative to positive control CCCP 2 uM, read-out: Score): 7.35%; Emax at 10 µM (Prestwick hits, relative to positive control CCCP 2 uM, read-out: HTS Score (lactate)): 7.3%"
CC(=O)N1CCc2sc(S(=O)(=O)Nc3cc(C)cc(C)c3)cc2C1 [P025-0080],33.1%,
CC(=O)N1CCc2sc(S(=O)(=O)NCc3ccccc3)cc2C1 [P025-0168],14.5%,
O=C(C1CC1)N1CCc2sc(S(=O)(=O)Nc3cccc(Cl)c3)cc2C1 [P025-0462],38.7%,
O=C(C1CCOC1)N1CCCn2nc(-c3cccc(Cl)c3)cc2C1 (stereo not drawn) [P218-0884],0%,
